The values that follow come from PubChem BioAssay (NCI).

Molecules are shown by their SMILES. Where “and” joins values, the source holds several entries; their conditions need not be identical. Identical values can stand only once.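 Cultured in 96-well plates, cells were exposed to test compound for 48 hours across five concentrations. GI50: concentration for 50% inhibition of growth. The concentration for full growth arrest is given as TGI.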

What all share (experiment): growth of human tumour cells (NCI), 48 h
Assay [1] deals with LOX IMVI melanoma.
Assay [2] relates to NCI-H23 lung.
For assay [3], the system named is M14 melanoma.
Assay [4] relates to SW-620 colon.
Assay [5] deals with NCI/ADR-RES ovarian.
For assay [6], the system named is MDA-MB-435.
The subject of assay [7] is SK-MEL-28 melanoma.
Assay [8] deals with SN12C renal.
Assay [9] relates to MALME-3M melanoma.
For assay [10], the system named is UACC-62 melanoma.

For `CC1(C)OCN(c2ccc(Cl)cc2)Cn2c1nc1ccccc12`, the TGI in assay [1], in [2], in [3], in [4], in assay [5] and in assay [6] was more than 100 µM each time. Further, the TGI in [7] is more than 100 µM; in assay [8], more than 100 µM; in assay [9], more than 100 µM; in assay [10] it was 5.58 µM.
Regarding `COC(=O)CCC1=C(C)c2cc3[n-]c(cc4nc(cc5[n-]c(cc1n2)c(CCC(=O)OC)c5C)C=C4C)cc3C.[Cd+2]`, the GI50 in [1] is 13.1 µM; in assay [2], 3.03 µM; in assay [3], 5.54 µM; in [4], 4.44 µM; in [5], 39.8 µM; in [6] it was 2.99 µM. Besides, the GI50 was 4.69 µM in assay [7], 19.1 µM in assay [8], 2.55 µM in assay [9] and 2 µM in assay [10]. For the same compound, the TGI is more than 74.6 µM in assay [1]; 16.7 µM in assay [2]; 22.8 µM in assay [3]; 18.4 µM in assay [4]; more than 100 µM in assay [5]; 19.6 µM in [6]. Moreover, the TGI in assay [7] was determined as 21.2 µM; in [8] it was 58 µM; in [9], 7.58 µM; in assay [10], 5.19 µM.
On to `Cc1nc(NC(=O)N2CCC[C@H]2C(N)=O)sc1-c1ccnc(C(C)(C)C(F)(F)F)c1`, for which the GI50 in assay [1] is 3.36 µM and 2.58 µM; in [2], 10.2 µM and > 10 µM; in assay [3] it was 8.75 µM and > 10 µM; in assay [4] it was 4.82 µM and 7.37 µM; in [5] it was 14.6 µM and > 10 µM; in assay [6], 7.33 µM and > 10 µM. Moreover, the GI50 in [7] was 4.72 µM and 6.71 µM; in assay [8], 6.43 µM and > 10 µM; in [9], 1.8 µM and > 10 µM; in assay [10], 3.18 µM and 3.05 µM. Also, the TGI is 22 µM and > 10 µM in assay [1]; 61.9 µM and > 10 µM in assay [2]; more than 82 µM in assay [3]; more than 67.1 µM in assay [4]; 85.8 µM and > 10 µM in assay [5]; 51.6 µM and > 10 µM in [6]. The TGI is more than 61.6 µM in [7]; more than 100 µM in assay [8]; 22.4 µM and > 10 µM in assay [9]; 18.7 µM and > 10 µM in assay [10].
In the case of `C=C(C)C1/C=C(/C(C)C)CC[C@]2(C)O[C@@H]2CC[C@H](C)CC1=O` (stereo partly specified), the GI50 was 23.3 µM in assay [1]; 87 µM in assay [2]; 49.6 µM in assay [3]; 87.4 µM in assay [5]; 39 µM in assay [6]; more than 100 µM in [7]. Besides, the GI50 in assay [8] was more than 100 µM; in assay [9], 36.1 µM; in assay [10] it was 80.2 µM. Also, the TGI in assay [1] is 57.6 µM; in assay [2], more than 100 µM; in assay [3], more than 100 µM; in [5], more than 100 µM; in assay [6] it was more than 100 µM; in assay [7], more than 100 µM. Also, the TGI in [8], in assay [9] and in assay [10] was more than 100 µM throughout.
Regarding `O=Cc1coc2ccccc2c1=O`, the TGI in assay [1] came to 37.1 µM; in [2] it was 70.7 µM; in [3], 38.5 µM; in [4] it was 41.5 µM; in assay [5] it was 34.9 µM; in assay [6], 47.9 µM. Besides, the TGI was 58.6 µM in assay [8], 30.2 µM in assay [9] and 52.8 µM in assay [10].
Regarding `CC(=O)/C(C)=N/N/C(N)=N\S(=O)(=O)c1cc(C(=O)Nc2ccccc2)c(Cl)cc1SCc1ccccc1`, the GI50 in assay [1] was 4.83 µM; in assay [2], 42.8 µM; in assay [3], 1.08 µM; in assay [5] it was more than 100 µM; in assay [6], 34.4 µM; in [7], more than 100 µM. In addition, the GI50 in assay [8] was 28.2 µM; in assay [9], more than 100 µM; in assay [10] it was 16.4 µM. Moreover, the TGI in assay [1] was more than 100 µM; in assay [2], more than 100 µM; in assay [3], 3.95 µM; in [5], more than 100 µM; in assay [6], more than 100 µM; in assay [7], more than 100 µM. Besides, the TGI in [8], in assay [9] and in assay [10] was more than 100 µM in each case.
For the compound `C#Cc1ccc(NC(=O)c2ccc(/C=C/C(=O)c3nccn3C)cc2)cc1`, the GI50 in [1] is 0.365 µM; in assay [2] it was 0.46 µM; in [3] it was 0.47 µM; in [4], 0.382 µM; in assay [5] it was 0.77 µM; in [6], 0.58 µM. The GI50 in assay [7] was 0.521 µM; in assay [9] it was 0.486 µM; in assay [10], 0.481 µM. Moreover, the TGI was found to be 0.711 µM in assay [1]; 1.06 µM in assay [2]; 0.96 µM in assay [3]; 1.01 µM in [4]; 25 µM in assay [5]; 1.5 µM in assay [6]. Moreover, the TGI is 1.24 µM in [7], 1.19 µM in [9] and 1.12 µM in [10].
Consider `Fc1ccc(-c2ncn(C3CCNCC3)c2-c2ccnc(Oc3cccc(F)c3)n2)cc1`, for which the GI50 in assay [1] was 10.5 µM; in assay [3], 5.26 µM; in assay [4] it was 5.54 µM; in [5], more than 23.4 µM; in assay [6] it was 6.57 µM; in assay [7] it was 5.46 µM. Further, the GI50 is 19.1 µM in [8], 6.71 µM in assay [9] and 10.5 µM in assay [10]. Moreover, the TGI was more than 25 µM in [1]; 10.5 µM in [3]; more than 14.7 µM in assay [4]; more than 25 µM in assay [5]; more than 19.4 µM in [6]; 11.6 µM in assay [7]. Also, the TGI in assay [8] was more than 25 µM; in [9], 16.8 µM; in assay [10] it was more than 18.6 µM.
